Experiments:
[1] = tested on: P. aeruginosa rhl AHL-mediated pathway (PrhlA-lacZ reporter); experiment: Anti-quorum sensing β-galactosidase assay, rhl biomonitor (PrhlA-lacZ with rhlR expressed in E. coli); type: cell-based, Pseudomonas aeruginosa; conditions: for effect on rhl activity (in words): tested at 50-200 μg/mL against 2 μM C4-AHL; for activity at 50 µg/mL / activity at 100 µg/mL / activity at 150 µg/mL / activity at 200 µg/mL: Escherichia coli, 4 h, read-out: Percent Activity ± Standard Deviation (PrhlA-lacZ expression relative to DMSO treated control)
Method: (§1) The conditions for the rhl biomonitor Escherichia coli DH5α harboring pECP61.5 plasmid, which contains Ptac-rhlR and PrhlA-lacZ (4), were essentially same except that the LB medium was only supplemented with ampillicin (100 μg/ml), the O/N culture was diluted to an OD600 of 0.150, induced with 1 mM IPTG, 2 μM C4—HSL and the compounds or the controls added when the OD600 reached 1.0. After incubation at 37° C. for 4 hours with shaking, β-galactosidase activity was assayed as described previously (28). Miller units were calculated as described (29). Assays were repeated at least twice. For each biological replicate, experimental triplicates were performed and the average percent activity calculated by dividing the average Miller units from the samples containing compound or extract by the average Miller units from the sample containing solvent and multiplying by 100. Significance of inhibition was determined using a paired two-tailed Student t-test.
(§2) Strains: E. coli DH5α harboring a PBAD-lasR expression plasmid and a PlasI-lacZ translational fusion plasmid was used as a biomonitor for the P. aeruginosa Las QS system, and e. coli XL-1Blue harboring a plasmid containing rhlA::lacZ translational fusion and Ptac-rhlR was used as a biomonitor for the P. aeruginosa Rhl QS system. V. harveyi strain B392 (MAV) was used.
Screening Against the rhl Pathway. To determine the effect of the lactams (7, 16, and 17) and the cyclic azahemiacetal derivatives (10, 20 and 21) on the P. aeruginosa rhl AHL-mediated pathways, a rhl-dependent β-galactosidase reporter (PrhlA-lacZ) was expressed with rhlR in E. coli (24-25). […] The lactam analogues 7a-d stimulated rhl QS activities at higher concentrations with moderate potency. […] The strong inhibition observed with propylthio 10a and hexylthio 10b azahemiacetal analogues having side chain lengths similar to C4-AHL is in agreement with the structure activity relationship reported for various synthetic AHL mimetics targeting RhlR (26).

LasR = LasR (Pseudomonas aeruginosa, UniProt P25084); conditions: Smith et al, reference 9; cited from earlier work
Chain of LasR (P25084 whole entry): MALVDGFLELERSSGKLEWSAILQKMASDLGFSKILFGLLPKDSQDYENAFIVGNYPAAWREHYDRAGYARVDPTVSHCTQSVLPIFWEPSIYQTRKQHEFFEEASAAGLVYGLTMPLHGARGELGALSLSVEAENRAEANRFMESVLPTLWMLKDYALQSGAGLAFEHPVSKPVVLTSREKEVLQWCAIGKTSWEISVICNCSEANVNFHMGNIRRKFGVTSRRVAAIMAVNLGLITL

[2] = tested on: P. aeruginosa las AHL-mediated pathway (PlasI-lacZ reporter); experiment: Anti-quorum sensing β-galactosidase assay, las biomonitor (PlasI-lacZ with lasR expressed in E. coli DH5α); type: cell-based, Pseudomonas aeruginosa; conditions: for effect on las activity / lasI promoter expression (in words): tested at 50-200 μg/mL against 2 μM 3-oxo-C12-AHL
Method: Anti-Quorum Sensing Assay (β-Galactosidase Assay). An overnight (O/N) culture of Escherichia coli DH5α harboring the plasmids pSC11, which contains a PlasI-lacZ translational fusion (24), and pJN105L, which contains a PBAD-lasR expression plasmid (25) grown in LB media (10 g tryptone, 5 g yeast extract, 5 g sodium chloride per liter) supplemented with ampillicin (100 μg/ml) and gentamycin (15 μg/ml), was diluted to an OD600 of 0.150. At this time, arabinose (0.2% w/v), N-3-(oxododecanoyl)homoserine lactone (3-oxo-C12-AHL; 2 μM), and either the compound under analysis or solvent (DMSO), was added to the culture (1.5 mL). A negative control containing only solvent and arabinose (0.2% w/v) was also assayed. The cultures were incubated with shaking for three hours at 37° C.
as §1, §2
Screening against las signaling. To determine the effect of the lactams (7, 16, and 17) and the cyclic azahemiacetal derivatives (10, 20 and 21) on the P. aeruginosa las AHL-mediated pathway, a las-dependent β-galactosidase reporter (PlasI-lacZ) was expressed with lasR in E. coli (24-25). […] The effect of synthetic compounds on the las activity was also compared with the addition of DMSO as a solvent. The propylthio lactam 7a and its azahemiacetal counterpart 10a were initially screened at a concentration of 100 μg/mL for their activity against the las system. […] This was dependent upon the addition of 2 μM of 3-oxo-C12-AHL. […] Cell growth was not inhibited by the addition of lactam and azahemiacetal compounds at the tested concentrations (data not shown).

Vibrio harveyi = experiment: Luminescence assay in Vibrio harveyi; type: cell-based
Method: Luminescence Assay: Vibrio harveyi was grown in AB medium. A 2.5 mL aliquot of overnight culture of V. harveyi was added to 2.5 μL and 10 μL of each compound as well as the solvent. The compound was dissolved in water or DMSO to serve as a control. Growth and luminescence were measured simultaneously in a modified Spec20 for three hours. Growth was measured as OD600 and luminescence was recorded in light units (1 LU=6.51×10^8 quanta/sec/mL).
as §2

[3] = Pseudomonas aeruginosa, read-out: inhibition of las activity
[4] = Pseudomonas aeruginosa, read-out: inhibition of las reporter activity

SMILES | effect on rhl activity (in words) [1] | effect on las activity / lasI promoter expression (in words) [2] | activity at 50 µg/mL [1] | activity at 100 µg/mL [1] | activity at 150 µg/mL [1] | activity at 200 µg/mL [1] | also measured
CCCC(=O)N[C@H]1CCOC1=O [Compound C4-AHL, N-butanoyl-L-homoserine lactone, reference compound] | activated the rhl β-galactosidase reporter |  |  |  |  |  | 
CCCCCCCCCC(=O)CC(=O)NC1CCCCC1=O (stereo not shown) [3-oxo-C12-(2-aminocyclohexanone)] |  |  |  |  |  |  | antagonism of LasR system (in words) (LasR): strong antagonist
CCCCCCSCC1CCC(O)N1 (stereo not shown) [Compound 10b, 5-(Hexylthiomethyl)pyrrolidin-2-ol] | inhibited rhl activity | stimulated QS at 50 μg/mL but with much lesser potency | 26% |  |  |  | inhibition of las activity ([2]; all concentrations tested higher than 50 μg/mL): 100%; inhibition of rhl signaling (in words) ([1]; concentrations of 100 μg/mL and higher): completely inhibited
CCCCCCCCCC(=O)CC(=O)N[C@H]1CCOC1=O [3-oxo-C12-AHL, N-3-(oxododecanoyl)homoserine lactone, reference compound] |  | activated the PlasI-lacZ |  |  |  |  | 
CCCCCCSCC1NC(=O)C(O)C1O (stereo not shown) [Compound 16, 3,4-Dihydroxy-5-(hexylthiomethyl)pyrrolidin-2-one] | stimulated rhl activities with moderate potency | inhibit las activity at all concentrations tested but only with moderate potency | 132 ± 36% | 129 ± 10% | 148 ± 9% | 161 ± 7% | 
CCCCCCSCC1NC(O)C(O)C1O (stereo not shown) [Compound 20, 3,4-Dihydroxy-5-(hexylthiomethyl)pyrrolidin-2-ol] | stimulated rhl activities with moderate potency | inhibit las activity at all concentrations tested but only with moderate potency | 94 ± 8% | 105 ± 3% | 109 ± 12% | 116 ± 18% | 
CCCCCCCCCSCC1NC(=O)C(O)C1O (stereo not shown) [Compound 17, 3,4-Dihydroxy-5-(nonylthiomethyl)pyrrolidin-2-one] | stimulated rhl activities with moderate potency | inhibit las activity at all concentrations tested but only with moderate potency | 106 ± 3% |  | 115 ± 11% | 135 ± 5% | 
CCCCCCCCCSCC1CCC(=O)N1 (stereo not shown) [Compound 7c, 5-(Nonylthiomethyl)pyrrolidin-2-one] |  | greatest inhibition at all concentrations tested | 95 ± 3% | 115 ± 30% | 108 ± 12% | 137 ± 46% | inhibition at 50 µg/mL [2, 3]: 28%
N[C@@H](CCSCC1C(O)C(O)C(=O)N1Cc1ccccc1)C(=O)O (stereo partly shown) [BDOH] |  |  |  |  |  |  | anti-QS effect against V. harveyi (in words) (Vibrio harveyi): strong anti-QS effect
CCCCCCCCCCCCSCC1CCC(=O)N1 (stereo not shown) [Compound 7d, 5-(Dodecylthiomethyl)pyrrolidin-2-one] |  | greatest inhibition at all concentrations tested | 103 ± 7% | 106 ± 6% | 109 ± 8% | 106 ± 5% | inhibition at 50 µg/mL [2, 3]: 48%
CCCCCCCCCSCC1NC(O)C(O)C1O (stereo not shown) [Compound 21, 3,4-Dihydroxy-5-(nonylthiomethyl)pyrrolidin-2-ol] | stimulated rhl activities with moderate potency | inhibit las activity at all concentrations tested but only with moderate potency | 98 ± 5% |  | 116 ± 9% | 121 ± 14% | 
CCCCCCCCCSCC1CCC(O)N1 (stereo not shown) [Compound 10c, 5-(Nonanylthiomethyl)pyrrolidin-2-ol] | inactive | moderate activity | 93 ± 12% | 80 ± 13% | 100 ± 11% | 99 ± 3% | 
CCCSCC1CCC(O)N1 (stereo not shown) [Compound 10a, 5-(Propylthiomethyl)pyrrolidin-2-ol] | inhibited rhl activity |  | 121 ± 6% | 138 ± 3% |  | 9% | stimulation of las reporter activity ([2]; 50 μg/mL, 2 μM 3-oxo-C12-AHL): ~2.3 fold; enhancement of las reporter activity ([2]; 100 μg/mL, 2 μM 3-oxo-C12-AHL): 15%; inhibition at 150 µg/mL [2, 4]: 69%; inhibition at 200 µg/mL [2, 4]: 89%; anti-QS effect against V. harveyi (in words) (Vibrio harveyi): strong anti-QS effect
CCCCCCCCCCCCSCC1CCC(O)N1 (stereo not shown) [Compound 10d, 5-(Dodecylthiomethyl)pyrrolidin-2-ol] | inactive | moderate activity | 98 ± 13% | 93 ± 27% | 91 ± 8% | 96 ± 5% | 
CCCSCC1CCC(=O)N1 (stereo not shown) [Compound 7a, 5-(Propylthiomethyl)pyrrolidin-2-one] |  | inhibited las activity at all concentrations tested | 104 ± 24% | 118% | 104 ± 13% | 108 ± 17% | inhibition at 100 µg/mL [2, 3]: ~28%; effect on las activity / lasI promoter expression (in words) ([2]; listed as OMPP): dosed dependent inhibition
CCCCCCSCC1CCC(=O)N1 (stereo not shown) [Compound 7b, 5-(Hexylthiomethyl)pyrrolidin-2-one] | most active | dosed dependent inhibition | 126 ± 8% | 126 ± 29% | 130 ± 31% |  | 
